For one series, the target named is T1, Beta-galactosidase (Homo sapiens, UniProt P16278).
T1 sequence (P16278 whole entry): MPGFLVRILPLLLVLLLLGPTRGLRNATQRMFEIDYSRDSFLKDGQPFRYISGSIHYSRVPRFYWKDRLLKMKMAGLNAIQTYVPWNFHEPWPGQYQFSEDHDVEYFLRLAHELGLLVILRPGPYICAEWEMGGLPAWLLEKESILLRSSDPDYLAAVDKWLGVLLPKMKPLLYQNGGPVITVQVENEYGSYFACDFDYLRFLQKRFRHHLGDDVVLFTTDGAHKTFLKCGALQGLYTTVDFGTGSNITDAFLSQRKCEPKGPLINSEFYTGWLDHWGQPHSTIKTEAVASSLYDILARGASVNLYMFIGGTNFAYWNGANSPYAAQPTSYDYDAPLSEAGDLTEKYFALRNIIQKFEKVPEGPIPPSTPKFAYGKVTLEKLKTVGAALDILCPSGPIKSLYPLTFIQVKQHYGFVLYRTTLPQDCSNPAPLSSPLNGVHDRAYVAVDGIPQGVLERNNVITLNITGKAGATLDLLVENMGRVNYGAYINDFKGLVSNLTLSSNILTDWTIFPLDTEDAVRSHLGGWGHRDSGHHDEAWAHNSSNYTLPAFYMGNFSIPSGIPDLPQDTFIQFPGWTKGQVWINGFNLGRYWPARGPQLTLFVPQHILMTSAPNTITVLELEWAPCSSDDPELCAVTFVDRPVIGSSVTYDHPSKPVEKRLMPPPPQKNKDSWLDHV
Put plainly: Inhibition of human beta-galactosidase expressed in mouse fibroblasts using 4-methylumbelliferone -conugated beta-D-galactoside as substrate incubated for 30 mins at pH 4.5 followed by substrate addition by fluorescence analysis.

A short description of series [1]: Cytotoxicity against human fibroblasts at 200 uM by LDH assay. The conditions noted are these: fibroblast. Type of series: cell-based.
Series [2] concerns the target T2, Beta-galactosidase (Bos taurus) (UniProt Q58D55).
T2 sequence (whole entry): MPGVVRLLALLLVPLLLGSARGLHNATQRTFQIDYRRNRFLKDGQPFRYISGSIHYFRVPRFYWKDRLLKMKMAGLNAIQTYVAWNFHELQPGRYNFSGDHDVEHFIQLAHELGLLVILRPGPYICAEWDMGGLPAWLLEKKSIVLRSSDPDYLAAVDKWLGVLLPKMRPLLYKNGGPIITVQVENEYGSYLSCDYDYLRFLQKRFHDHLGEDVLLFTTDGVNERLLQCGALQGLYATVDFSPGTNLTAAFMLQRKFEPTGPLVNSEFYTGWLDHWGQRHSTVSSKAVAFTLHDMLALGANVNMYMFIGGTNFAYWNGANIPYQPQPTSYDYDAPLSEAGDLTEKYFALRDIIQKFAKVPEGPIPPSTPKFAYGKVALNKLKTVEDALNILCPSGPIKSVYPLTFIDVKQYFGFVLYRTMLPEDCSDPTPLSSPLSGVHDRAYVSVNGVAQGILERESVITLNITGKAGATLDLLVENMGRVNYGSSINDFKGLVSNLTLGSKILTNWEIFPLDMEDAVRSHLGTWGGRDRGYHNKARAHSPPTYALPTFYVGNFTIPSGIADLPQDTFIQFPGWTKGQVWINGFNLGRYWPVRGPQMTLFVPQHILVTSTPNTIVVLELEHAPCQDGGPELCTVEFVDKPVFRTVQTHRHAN
Put plainly: Inhibition of bovine liver beta-galactosidase using p-nitrophenyl-beta-D-galactopyranoside as substrate preincubated with substrate followed by protein addition measured after 30 mins by microplate reader analysis.

The test system of another series is Prunus dulcis. Nature of the series: Inhibition of almond beta-glucosidase using p-nitrophenyl-beta-D-glucopyranoside as substrate preincubated with substrate followed by protein addition measured after 30 mins by microplate reader analysis.
Series [3] can be described thus: Inhibition of human alpha-galactosidase isolated from human fibroblasts incubated for 30 mins using […] analysis.
Series [4] concerns the target T3, Lysosomal acid glucosylceramidase (Homo sapiens, UniProt P04062).
T3 sequence (P04062 whole entry): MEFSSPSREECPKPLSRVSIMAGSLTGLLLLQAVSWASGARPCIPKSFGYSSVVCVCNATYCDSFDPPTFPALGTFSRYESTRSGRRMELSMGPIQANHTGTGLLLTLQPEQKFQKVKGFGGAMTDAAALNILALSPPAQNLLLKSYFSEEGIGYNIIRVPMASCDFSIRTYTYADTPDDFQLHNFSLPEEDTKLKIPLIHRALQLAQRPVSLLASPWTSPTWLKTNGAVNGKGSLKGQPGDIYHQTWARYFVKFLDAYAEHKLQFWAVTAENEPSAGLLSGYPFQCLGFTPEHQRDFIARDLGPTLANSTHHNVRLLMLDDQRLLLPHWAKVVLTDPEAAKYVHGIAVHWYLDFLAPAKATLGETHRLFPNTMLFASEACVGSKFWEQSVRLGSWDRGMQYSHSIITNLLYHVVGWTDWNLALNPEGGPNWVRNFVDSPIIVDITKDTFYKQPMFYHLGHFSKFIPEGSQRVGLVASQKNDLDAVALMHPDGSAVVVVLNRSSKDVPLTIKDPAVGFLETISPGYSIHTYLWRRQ
Nature of the series: Inhibition of human beta-glucosidase isolated from human fibroblasts incubated for 30 mins using […] analysis.

Series [5] concerns T4, Beta-galactosidase (Homo sapiens), P16278 [R201C].
T4 sequence (whole entry): T1 sequence (P16278 whole entry) with R201C
Nature of the series: Activation of human beta-galactosidase R201C mutant expressed in mouse fibroblasts using 4-methylumbelliferone -conugated beta-D-galactoside as substrate at 20 uM preincubated for 48 hrs followed by substrate addition measured after 30 mins by fluorescence analysis relative to control.

The nature of series [6]: Cytotoxicity against human fibroblasts at 20 uM by LDH assay. Type of series: cell-based. The settings on record: fibroblast.
The test system of series [7] is T4, Beta-galactosidase (Homo sapiens), P16278 [R201C]. Nature of the series: Activation of human beta-galactosidase R201C mutant expressed in mouse fibroblasts using 4-methylumbelliferone -conugated beta-D-galactoside as substrate at 2 uM preincubated for 48 hrs followed by substrate addition measured after 30 mins by fluorescence analysis relative to control.

SMILES strings stand for the structures. Numbering of substitutions follows the chain as printed. Calls of active or inactive are those of the source. The calls are words filed in the database; no cut-off is given here.

As usually defined, the IC50 is the point on the concentration scale where inhibition reaches its midpoint. High values mean weaker potency in that assay, low ones greater potency in that assay. For `CC(C)CCN[C@@H]1C=C[C@H](O)[C@H](O)[C@H]1O.Cl`, the IC50 against Beta-galactosidase was 28 µM; in series [3], more than 1000 µM; in series [4] it was more than 1000 µM. In series [1], this molecule displayed an Activity of less than 10%. Also, the inhibition result (in series [2]; in the series on Prunus dulcis) was “Active” each time. In addition, the fold change (FC) in series [5] is 4.6.
For `CCCCCCN[C@@H]1C=C[C@H](O)[C@H](O)[C@H]1O.Cl`, the IC50 against Beta-galactosidase is 56 µM; in [3], more than 1000 µM; in [4], more than 1000 µM. This molecule returned an Activity in [1] of less than 10%. Also, the inhibition result (in [2]; in the series on Prunus dulcis) was “Active” throughout. In addition, the fold change (FC) in series [5] amounted to 4.6.
As for `Cl.O[C@@H]1[C@@H](O)[C@H](NCc2ccccc2)C=C[C@@H]1O`, the IC50 on Beta-galactosidase was 180 µM; in [3], more than 1000 µM; in [4] it was more than 1000 µM. The same molecule showed an Activity in [1] of less than 10%. For the same molecule, the inhibition result (in series [2]; in the series on Prunus dulcis) was “Active” each time. Also, the fold change (FC) in [5] turned out to be 1.5.
On to `Cl.O[C@@H]1[C@@H](O)[C@H](NCCc2ccccc2)C=C[C@@H]1O`, for which the 50% inhibitory concentration (IC50) against Beta-galactosidase was 86 µM; in series [3] it was more than 1000 µM; in [4], more than 1000 µM. The Activity in [1] is reported as less than 10%. The inhibition entry (in series [2]; in the series with Prunus dulcis) was “Active” each time. Moreover, in series [5], the fold change (FC) was found to be 4.2.
Regarding `CCCCCCCCCCN[C@@H]1C=C[C@H](O)[C@H](O)[C@H]1O.Cl`, the IC50 against Beta-galactosidase was 43 µM; in series [3] it was more than 1000 µM; in series [4], more than 1000 µM. Also, the Activity in series [1] is 54%; in series [6], 24%. The inhibition result (in series [2]; with Prunus dulcis) was “Active” throughout. Further, the fold change (FC) in [5] was 1.6.
As for `CCCCCN[C@@H]1C=C[C@H](O)[C@H](O)[C@H]1O.Cl`, the values for the IC50 (at Beta-galactosidase; in [3]; in series [4]) were 19 µM, more than 1000 µM and more than 1000 µM, respectively. Besides, in series [1], the Activity is less than 10%. Also, the inhibition result (in series [2]; in the series with Prunus dulcis) was “Active” in each case. The fold change (FC) in series [5] was found to be 4.
Consider `CCCCCCCCN[C@@H]1C=C(CO)[C@H](O)[C@H](O)[C@H]1O.Cl`, for which the fold change (FC) in [7] was 4.6; in [5], 3.6. The IC50 against Beta-galactosidase was 1.7 µM; in series [3], more than 1000 µM; in [4], more than 1000 µM. Also, the Activity was 7.5% in [1] and 1.1% in series [6].
Take `CCC(CC)CN[C@@H]1C=C[C@H](O)[C@H](O)[C@H]1O.Cl`: the IC50 against Beta-galactosidase was 15 µM; in [3], more than 1000 µM; in series [4], more than 1000 µM. Moreover, the Activity in [1] is on record as less than 10%. Also, the inhibition result (in series [2]; in the series with Prunus dulcis) was “Active” throughout. Also, the fold change (FC) in series [5] was found to be 7.4.
Regarding `CC(C)CN[C@@H]1C=C[C@H](O)[C@H](O)[C@H]1O.Cl`, the concentration for half-maximal inhibition (IC50) on Beta-galactosidase was 41 µM; in series [3], more than 1000 µM; in series [4] it was more than 1000 µM. The same molecule came in with an Activity in series [1] of less than 10%. Also, the inhibition entry (in series [2]; in the series on Prunus dulcis) was “Active” in each case. Also, the fold change (FC) in [5] stood at 4.6.
Regarding `Cl.O[C@@H]1[C@@H](O)[C@H](NCC2CCCCC2)C=C[C@@H]1O`, the 50% inhibitory concentration (IC50) was 60 µM against Beta-galactosidase, more than 1000 µM in series [3] and more than 1000 µM in series [4]. The Activity in [1] was determined as 3.8%; in series [6] it was 0.7%. In addition, the inhibition entry (in series [2]; with Prunus dulcis) was “Active” each time. The fold change (FC) in [5] stood at 8.5.
`Cl.O[C@@H]1[C@@H](O)[C@H](NC2CCCCC2)C=C[C@@H]1O`: the IC50 is 490 µM against Beta-galactosidase, more than 1000 µM in [3] and more than 1000 µM in series [4]. In series [1], this molecule displayed an Activity of less than 10%. The inhibition result (in series [2]; in the series on Prunus dulcis) was “Active” throughout. The fold change (FC) in [5] was found to be 1.4.
Turning to `Cl.OCCCN[C@@H]1C=C[C@H](O)[C@H](O)[C@H]1O`, the concentration for half-maximal inhibition (IC50) (at Beta-galactosidase; in [3]; in [4]) was more than 1000 µM in each case. In addition, the Activity in series [1] was less than 10%. In addition, the inhibition entry (in series [2]; in the series on Prunus dulcis) was “Active” in each case. Besides, the fold change (FC) in series [5] turned out to be 0.9.
As for `CCC(CC)N[C@@H]1C=C[C@H](O)[C@H](O)[C@H]1O.Cl`, the IC50 (on Beta-galactosidase; in series [3]; in series [4]) was more than 1000 µM each time. This molecule also showed an Activity in series [1] of less than 10%. The inhibition result (in [2]; in the series with Prunus dulcis) was “Active” throughout. For the same molecule, in series [5], the fold change (FC) came to 1.2.
Regarding `CCCCN[C@@H]1C=C[C@H](O)[C@H](O)[C@H]1O.Cl`, the 50% inhibitory concentration (IC50) against Beta-galactosidase is 50 µM; in [3], more than 1000 µM; in [4], more than 1000 µM. Further, the Activity in series [1] is on record as less than 10%. Also, the inhibition entry (in series [2]; in the series on Prunus dulcis) was “Active” in each case. Besides, the fold change (FC) in series [5] worked out at 2.
